Calls of active or inactive are those of the source. No cut-off for these calls is given here.
Columns and labels:
[1] = system: A549; experiment: Downregulation of HDAC3 expression in human A549 cells at 0.1 to 1 uM after 24 hrs by Western blot analysis; format: functional, cell-based; conditions: dose 0.1-1 µM
[2] = organism: Homo sapiens; experiment: Selectivity index, ratio of IC50 for HDAC9 (unknown origin) to IC50 for HDAC 6 (unknown origin)
[3] = organism: Homo sapiens; experiment: Selectivity index, ratio of IC50 for HDAC 2 (unknown origin) to IC50 for HDAC 3 (unknown origin)
[4] = organism: Homo sapiens; experiment: Selectivity index, ratio of IC50 for HDAC 3 (unknown origin) to IC50 for HDAC 1 (unknown origin)
[5] = organism: Homo sapiens; experiment: Selectivity index, ratio of IC50 for HDAC5 (unknown origin) to IC50 for HDAC 1 (unknown origin)
[6] = system: A549; experiment: Downregulation of HDAC1 expression in human A549 cells at 0.1 to 1 uM after 24 hrs by Western blot analysis; format: functional, cell-based; conditions: dose 0.1-1 µM
[7] = system: A549; experiment: Induction of cell cycle arrest in human A549 cells assessed as accumulation at G0/G1 phase at 0.5 times IC50 after 48 hrs by flow cytometry; format: functional, cell-based
[8] = system: A549; experiment: Induction of apoptosis in human A549 cells assessed as cell shrinkage at 0.1 to 1 uM after 24 hrs by fluorescence microscopic analysis; format: functional, cell-based; conditions: dose 0.1-1 µM
[9] = organism: Homo sapiens; experiment: Selectivity index, ratio of IC50 for HDAC 2 (unknown origin) to IC50 for HDAC 6 (unknown origin)
[10] = system: A549; experiment: Downregulation of HDAC6 expression in human A549 cells at 0.1 to 1 uM after 24 hrs by Western blot analysis; format: functional, cell-based; conditions: dose 0.1-1 µM
[11] = molecular target: Histone deacetylase 9 (Homo sapiens, UniProt Q9UKV0); experiment: Inhibition of HDAC9 (unknown origin) by colorimetric method
Histone deacetylase 9, sequence (Q9UKV0 whole entry): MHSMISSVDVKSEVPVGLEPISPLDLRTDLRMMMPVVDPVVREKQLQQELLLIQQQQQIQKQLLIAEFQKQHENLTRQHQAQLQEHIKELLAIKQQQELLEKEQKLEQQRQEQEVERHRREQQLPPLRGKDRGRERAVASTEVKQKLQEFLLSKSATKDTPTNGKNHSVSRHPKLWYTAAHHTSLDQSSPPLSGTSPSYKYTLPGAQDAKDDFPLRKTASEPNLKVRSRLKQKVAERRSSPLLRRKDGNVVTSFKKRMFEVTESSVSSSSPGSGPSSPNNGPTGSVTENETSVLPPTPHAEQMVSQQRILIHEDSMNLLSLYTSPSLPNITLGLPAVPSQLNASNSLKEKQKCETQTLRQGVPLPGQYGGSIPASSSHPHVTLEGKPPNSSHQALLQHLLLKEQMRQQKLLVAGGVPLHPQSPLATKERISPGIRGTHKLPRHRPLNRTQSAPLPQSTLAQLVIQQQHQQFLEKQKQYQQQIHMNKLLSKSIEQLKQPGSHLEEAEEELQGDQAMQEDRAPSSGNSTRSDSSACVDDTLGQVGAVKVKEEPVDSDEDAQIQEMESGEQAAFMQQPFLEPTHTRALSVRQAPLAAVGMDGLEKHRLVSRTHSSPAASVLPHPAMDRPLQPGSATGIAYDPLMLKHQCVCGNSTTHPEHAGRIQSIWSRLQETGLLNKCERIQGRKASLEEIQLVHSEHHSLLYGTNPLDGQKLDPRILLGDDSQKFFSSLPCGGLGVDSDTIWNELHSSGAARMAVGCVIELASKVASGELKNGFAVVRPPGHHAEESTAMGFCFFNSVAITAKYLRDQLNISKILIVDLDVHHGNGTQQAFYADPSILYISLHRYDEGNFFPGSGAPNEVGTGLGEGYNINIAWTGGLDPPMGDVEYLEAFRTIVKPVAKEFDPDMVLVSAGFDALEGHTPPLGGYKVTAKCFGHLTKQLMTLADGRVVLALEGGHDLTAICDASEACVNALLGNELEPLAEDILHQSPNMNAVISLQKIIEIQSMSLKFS

[12] = system: NCI-H727; experiment: Cytotoxicity against human NCI-H727 cells assessed as cell viability after 48 hrs by MTT assay; format: functional, cell-based; conditions: NCI-H727, 48 h
[13] = organism: Homo sapiens; experiment: Selectivity index, ratio of IC50 for HDAC3 (unknown origin) to IC50 for HDAC 6 (unknown origin)
[14] = organism: Homo sapiens; experiment: Selectivity index, ratio of IC50 for HDAC8 (unknown origin) to IC50 for HDAC 6 (unknown origin)
[15] = molecular target: Histone deacetylase 1 (Homo sapiens, UniProt Q13547); experiment: Inhibition of HDAC1 (unknown origin) by colorimetric method
Histone deacetylase 1, sequence (Q13547 whole entry): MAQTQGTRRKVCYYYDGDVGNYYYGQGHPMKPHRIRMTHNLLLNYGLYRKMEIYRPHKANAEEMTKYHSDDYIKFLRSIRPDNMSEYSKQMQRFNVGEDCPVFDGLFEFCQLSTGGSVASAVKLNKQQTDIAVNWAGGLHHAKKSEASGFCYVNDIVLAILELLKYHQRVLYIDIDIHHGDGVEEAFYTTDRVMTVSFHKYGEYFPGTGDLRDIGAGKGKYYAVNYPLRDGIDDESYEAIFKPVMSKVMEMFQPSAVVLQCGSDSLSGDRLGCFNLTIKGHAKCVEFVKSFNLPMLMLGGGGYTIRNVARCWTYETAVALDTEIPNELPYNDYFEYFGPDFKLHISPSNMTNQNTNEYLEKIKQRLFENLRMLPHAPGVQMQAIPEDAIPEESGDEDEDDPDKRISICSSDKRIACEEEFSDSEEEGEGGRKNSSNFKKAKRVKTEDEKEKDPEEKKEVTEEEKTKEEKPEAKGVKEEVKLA

[16] = organism: Homo sapiens; experiment: Selectivity index, ratio of IC50 for HDAC 8 (unknown origin) to IC50 for HDAC 3 (unknown origin)
[17] = molecular target: T1, Histone deacetylase 7 (Homo sapiens, UniProt Q8WUI4); experiment: Inhibition of HDAC7 (unknown origin) by colorimetric method
T1 sequence (Q8WUI4 whole entry): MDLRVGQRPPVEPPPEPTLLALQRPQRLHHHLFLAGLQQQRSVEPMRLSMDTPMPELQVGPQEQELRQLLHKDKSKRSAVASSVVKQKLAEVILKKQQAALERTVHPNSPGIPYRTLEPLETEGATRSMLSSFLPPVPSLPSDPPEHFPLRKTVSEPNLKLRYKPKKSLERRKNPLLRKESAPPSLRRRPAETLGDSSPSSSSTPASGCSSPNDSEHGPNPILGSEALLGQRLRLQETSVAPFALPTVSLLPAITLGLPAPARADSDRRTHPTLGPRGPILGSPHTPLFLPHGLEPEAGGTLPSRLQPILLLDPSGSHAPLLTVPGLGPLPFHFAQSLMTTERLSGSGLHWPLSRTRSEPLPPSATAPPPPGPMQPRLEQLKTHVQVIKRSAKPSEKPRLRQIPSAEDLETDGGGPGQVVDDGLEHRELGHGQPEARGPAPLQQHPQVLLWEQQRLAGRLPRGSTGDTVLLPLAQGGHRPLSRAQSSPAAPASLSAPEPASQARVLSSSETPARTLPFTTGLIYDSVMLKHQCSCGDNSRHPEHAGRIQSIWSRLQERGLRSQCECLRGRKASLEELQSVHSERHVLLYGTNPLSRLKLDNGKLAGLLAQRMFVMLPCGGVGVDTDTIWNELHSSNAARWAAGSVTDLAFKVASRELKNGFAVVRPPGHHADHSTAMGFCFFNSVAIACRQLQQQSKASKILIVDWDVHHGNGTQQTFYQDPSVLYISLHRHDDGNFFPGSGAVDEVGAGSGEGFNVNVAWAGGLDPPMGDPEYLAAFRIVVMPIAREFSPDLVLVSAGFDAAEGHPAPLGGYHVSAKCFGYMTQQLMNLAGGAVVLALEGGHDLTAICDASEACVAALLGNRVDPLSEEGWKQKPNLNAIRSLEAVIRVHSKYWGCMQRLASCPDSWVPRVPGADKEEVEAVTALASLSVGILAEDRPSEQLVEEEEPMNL

In the case of `O=C(/C=C/c1ccc(CNc2ccc3nc4n(c(=O)c3c2)CCCCC4)cc1)NO`, the inhibition [1] is reported as “Active”, the Ratio IC50 [2] is reported as 335 and the Ratio IC50 [3] is reported as 18.4. For the same molecule, the Ratio IC50 [4] was 1.37, the Ratio IC50 [5] was 12.4 and the inhibition [6] was “Active”. The Activity [7] was “Active”, the Activity [8] was “Active” and the Ratio IC50 [9] was 97.7. For the same molecule, the inhibition [10] was “Active”, the IC50 [11] was 4.32 µM and the IC50 [12] was 0.96 µM. The Ratio IC50 [13] was 5.31, the Ratio IC50 [14] was 13.7 and the IC50 [15] was 0.0499 µM. The Ratio IC50 [16] was 2 and the IC50 [17] was 4.08 µM.
